Laboratory results from patent publication US6653307B2, “1-aryl-4-oxo-1,4-dihydro-3-quinolinecarboxamides as antiviral agents” (Pharmacia & Upjohn Company, priority 2000, dated 2003).

Legend:
HCMV polymerase = molecular target: T1, HCMV polymerase (Human cytomegalovirus, UniProt P08546); assay: HCMV polymerase scintillation proximity assay (SPA); type: biochemical; conditions: 3H-dTTP incorporation
T1 construct: made in house; host or cells: recombinant baculovirus-infected SF-9 cells
Experimental: (§1) The HCMV polymerase assay is performed using a scintillation proximity assay (SPA) as described in several references, such as N.D. Cook, et al., Pharmaceutical Manufacturing International, pages 49-53 (1992); K. Takeuchi, Laboratory Practice, September issue (1992); U.S. Pat. No. 4,568,649 (1986); which are incorporated by reference herein. Reactions are performed in 96-well plates. The assay is conducted in 100 μl volume with 5.4 mM HEPES (pH 7.5), 11.7 mM KCl, 4.5 mM MgCl2, 0.36 mg/ml BSA, and 90 nM ^3H-dTTP. Assays are run with and without CHAPS, (3-[(3-cholamidopropyl)-dimethylammonio]-1-propane-sulfonate) at a final concentration of 2 mM. HCMV polymerase is diluted in enzyme dilution buffer containing 50% glycerol, 250 mM NaCl, 10 mM HEPES (pH 7.5), 100 μg/ml BSA, and 0.01% sodium azide. The HCMV polymerase, which is expressed in recombinant baculovirus-infected SF-9 cells and purified according to literature procedures, is added at 10% (or 10 μl) of the final reaction volume, i.e., […]. Compounds are diluted in 50% DMSO and 10 μl are added to each well. Control wells contain an equivalent concentration of DMSO. Unless noted otherwise, reactions are initiated via the addition of 6 nM biotinylated poly(dA)-oligo(dT) template/primer to reaction mixtures containing the enzyme, substrate, and compounds of interest. Plates are incubated in a 25 C or 37 C H2O bath and terminated via the addition of 40 μl/reaction of 0.5 M EDTA (pH 8) per well. Reactions are terminated within the time-frame during which substrate incorporation is linear and varied depending upon the enzyme and conditions used, i.e., 30 min. for HCMV polymerase. Ten μl of streptavidin-SPA beads (20 mg/ml in PBS/10% glycerol) are added following termination of the reaction. Plates are incubated 10 min. at 37 C, then equilibrated to room temperature, and counted on a Packard Topcount. Linear regressions are performed and IC50's are calculated using computer software. A modified version of the above HCMV polymerase assay is performed as described above, but with the following changes: Compounds are diluted in 100% DMSO until final dilution into assay buffer. In the previous assay, compounds are diluted in 50% DMSO. 4.5 mM dithiotherotol (DTT) is added to the polymerase buffer.

VZV polymerase = VZV polymerase (Varicella-zoster virus, UniProt P09252); assay: VZV polymerase assay (Table 1); type: biochemical
Experimental: [Worded in the source for another target; this target is reported under the same test.] as §1

HSV polymerase = HSV polymerase (Human herpesvirus 1, UniProt P04293); assay: HSV polymerase assay (Table 1); type: biochemical
Experimental: [Worded in the source for another target; this target is reported under the same test.] as §1

T1 sequence (P08546 whole entry): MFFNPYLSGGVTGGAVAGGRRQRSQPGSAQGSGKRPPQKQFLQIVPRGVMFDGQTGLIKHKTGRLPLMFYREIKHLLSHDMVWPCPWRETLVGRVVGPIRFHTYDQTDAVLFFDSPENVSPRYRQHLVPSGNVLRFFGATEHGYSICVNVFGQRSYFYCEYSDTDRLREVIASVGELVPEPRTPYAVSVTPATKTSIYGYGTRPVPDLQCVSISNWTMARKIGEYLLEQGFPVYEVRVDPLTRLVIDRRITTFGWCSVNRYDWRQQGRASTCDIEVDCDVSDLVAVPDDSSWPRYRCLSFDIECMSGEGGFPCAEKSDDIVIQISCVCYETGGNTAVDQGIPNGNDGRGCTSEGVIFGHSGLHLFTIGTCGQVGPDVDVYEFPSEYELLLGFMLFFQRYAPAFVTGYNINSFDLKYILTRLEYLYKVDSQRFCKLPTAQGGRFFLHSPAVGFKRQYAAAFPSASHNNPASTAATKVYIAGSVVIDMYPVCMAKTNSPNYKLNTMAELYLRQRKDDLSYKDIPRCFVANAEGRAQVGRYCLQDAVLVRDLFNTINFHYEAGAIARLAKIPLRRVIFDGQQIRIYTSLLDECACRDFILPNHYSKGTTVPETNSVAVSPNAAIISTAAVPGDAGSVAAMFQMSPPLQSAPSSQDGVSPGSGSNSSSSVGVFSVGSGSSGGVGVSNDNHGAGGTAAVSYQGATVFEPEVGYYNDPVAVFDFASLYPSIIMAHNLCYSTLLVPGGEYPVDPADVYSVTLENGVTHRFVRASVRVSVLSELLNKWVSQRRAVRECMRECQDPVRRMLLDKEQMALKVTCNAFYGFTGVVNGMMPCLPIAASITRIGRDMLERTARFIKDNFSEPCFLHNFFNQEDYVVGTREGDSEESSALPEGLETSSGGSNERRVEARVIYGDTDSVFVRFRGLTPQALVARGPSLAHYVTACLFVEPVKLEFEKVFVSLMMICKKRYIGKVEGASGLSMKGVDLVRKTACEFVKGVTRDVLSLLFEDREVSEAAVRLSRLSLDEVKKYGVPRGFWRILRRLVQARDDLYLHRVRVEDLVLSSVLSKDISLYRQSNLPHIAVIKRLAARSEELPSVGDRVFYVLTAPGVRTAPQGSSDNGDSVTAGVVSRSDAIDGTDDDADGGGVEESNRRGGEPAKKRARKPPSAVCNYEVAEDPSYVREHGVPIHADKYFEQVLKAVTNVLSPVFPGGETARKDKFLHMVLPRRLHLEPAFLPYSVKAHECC
Chain of HSV polymerase (P04293 whole entry): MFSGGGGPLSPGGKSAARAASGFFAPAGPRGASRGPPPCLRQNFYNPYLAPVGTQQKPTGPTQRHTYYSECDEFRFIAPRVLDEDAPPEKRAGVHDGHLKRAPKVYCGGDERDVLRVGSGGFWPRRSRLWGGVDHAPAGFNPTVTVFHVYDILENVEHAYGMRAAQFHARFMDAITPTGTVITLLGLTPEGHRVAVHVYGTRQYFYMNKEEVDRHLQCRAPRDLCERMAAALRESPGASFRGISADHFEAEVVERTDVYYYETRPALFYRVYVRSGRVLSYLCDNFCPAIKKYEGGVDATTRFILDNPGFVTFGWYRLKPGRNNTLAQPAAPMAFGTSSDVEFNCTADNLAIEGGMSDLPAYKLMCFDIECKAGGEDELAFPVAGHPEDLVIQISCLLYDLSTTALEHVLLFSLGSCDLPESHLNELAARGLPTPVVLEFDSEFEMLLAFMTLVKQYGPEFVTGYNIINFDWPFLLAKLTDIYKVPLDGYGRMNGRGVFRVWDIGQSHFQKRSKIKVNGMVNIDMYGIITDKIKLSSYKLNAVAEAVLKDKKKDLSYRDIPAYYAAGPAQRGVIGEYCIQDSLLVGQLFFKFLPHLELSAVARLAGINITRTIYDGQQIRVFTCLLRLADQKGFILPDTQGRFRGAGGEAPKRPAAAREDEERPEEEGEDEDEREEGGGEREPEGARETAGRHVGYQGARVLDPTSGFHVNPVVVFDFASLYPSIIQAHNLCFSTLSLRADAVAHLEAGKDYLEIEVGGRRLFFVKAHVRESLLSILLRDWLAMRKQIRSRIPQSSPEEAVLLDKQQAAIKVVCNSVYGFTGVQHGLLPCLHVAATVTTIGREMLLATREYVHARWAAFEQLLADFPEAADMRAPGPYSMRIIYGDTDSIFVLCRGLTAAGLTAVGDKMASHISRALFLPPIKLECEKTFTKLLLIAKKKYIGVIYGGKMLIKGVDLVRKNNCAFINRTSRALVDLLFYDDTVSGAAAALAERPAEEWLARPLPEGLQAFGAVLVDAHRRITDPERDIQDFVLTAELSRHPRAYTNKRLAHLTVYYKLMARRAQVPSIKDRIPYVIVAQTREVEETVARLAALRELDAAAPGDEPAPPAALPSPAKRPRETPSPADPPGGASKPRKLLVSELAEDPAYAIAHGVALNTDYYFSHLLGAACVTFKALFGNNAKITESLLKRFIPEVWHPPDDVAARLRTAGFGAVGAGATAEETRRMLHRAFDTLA
Chain of VZV polymerase (P09252 whole entry): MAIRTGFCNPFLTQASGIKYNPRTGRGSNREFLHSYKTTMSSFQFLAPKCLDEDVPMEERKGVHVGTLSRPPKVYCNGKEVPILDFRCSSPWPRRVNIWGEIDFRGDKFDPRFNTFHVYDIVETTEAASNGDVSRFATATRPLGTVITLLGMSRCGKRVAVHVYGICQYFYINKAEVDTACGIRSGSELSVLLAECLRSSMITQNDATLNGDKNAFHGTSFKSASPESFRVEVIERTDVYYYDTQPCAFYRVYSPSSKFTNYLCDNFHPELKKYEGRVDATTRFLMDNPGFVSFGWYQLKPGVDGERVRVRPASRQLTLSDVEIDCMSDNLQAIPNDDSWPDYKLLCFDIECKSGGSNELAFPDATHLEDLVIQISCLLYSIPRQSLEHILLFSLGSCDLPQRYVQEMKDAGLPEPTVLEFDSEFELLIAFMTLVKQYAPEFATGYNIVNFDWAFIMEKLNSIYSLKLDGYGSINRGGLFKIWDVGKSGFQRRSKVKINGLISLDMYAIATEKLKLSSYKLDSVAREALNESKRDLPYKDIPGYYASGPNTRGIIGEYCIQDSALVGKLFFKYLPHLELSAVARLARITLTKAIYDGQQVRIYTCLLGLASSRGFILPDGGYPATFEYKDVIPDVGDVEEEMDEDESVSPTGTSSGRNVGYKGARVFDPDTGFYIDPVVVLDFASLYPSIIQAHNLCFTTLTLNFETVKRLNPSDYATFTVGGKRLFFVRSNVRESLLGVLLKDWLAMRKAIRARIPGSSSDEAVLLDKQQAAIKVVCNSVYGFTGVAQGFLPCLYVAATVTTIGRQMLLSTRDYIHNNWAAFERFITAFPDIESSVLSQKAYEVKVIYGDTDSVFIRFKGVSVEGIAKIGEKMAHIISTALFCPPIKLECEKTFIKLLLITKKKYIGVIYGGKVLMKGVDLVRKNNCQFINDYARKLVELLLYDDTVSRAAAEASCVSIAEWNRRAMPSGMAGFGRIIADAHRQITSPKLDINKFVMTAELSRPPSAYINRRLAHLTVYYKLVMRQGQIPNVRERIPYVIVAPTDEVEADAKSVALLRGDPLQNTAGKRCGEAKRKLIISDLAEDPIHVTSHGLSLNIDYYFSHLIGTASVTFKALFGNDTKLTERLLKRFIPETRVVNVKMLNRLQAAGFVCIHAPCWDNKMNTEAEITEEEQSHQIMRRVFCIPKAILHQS

Compound	melting point [°C]	IC50 (HCMV polymerase) [µM]	IC50 (VZV polymerase) [µM]	IC50 (HSV polymerase) [µM]
Cc1ccccc1-n1cc(C(=O)NCc2ccc(Cl)cc2)c(=O)c2cc(CN3CCOCC3)ccc21 [Example 2, N-(4-Chlorobenzyl)-1-(2-methylphenyl)-6-(4-morpholinylmethyl)-4-oxo-1,4-dihydro-3-quinolinecarboxamide]	148 to 150	3	–	–
O=C(NCc1ccc(Cl)cc1)c1cn(-c2ccc(Cl)cc2)c2ccc(CN3CCOCC3)cc2c1=O [Example 4, N-(4-Chlorobenzyl)-1-(4-chlorophenyl)-6-(4-morpholinylmethyl)-4-oxo-1,4-dihydro-3-quinolinecarboxamide]	189 to 191	1.1	–	–
CC(C)c1ccc(-n2cc(C(=O)NCc3ccc(Cl)cc3)c(=O)c3cc(CN4CCOCC4)ccc32)cc1 [Example 5, N-(4-Chlorobenzyl)-1-(4-isopropylphenyl)-6-(4-morpholinylmethyl)-4-oxo-1,4-dihydro-3-quinolinecarboxamnide]	199 to 203	4	–	–
O=C(NCc1ccc(Cl)cc1)c1cn(-c2ccc3c(c2)OCO3)c2ccc(CN3CCOCC3)cc2c1=O [Example 10, 1-(1,3-Benzodioxol-5-yl)-N-(4-chlorobenzyl)-6-(4-morpholinylmethyl)-4-oxo-1,4-dihydro-3-quinolinecarboxamide]	188 to 189	0.89	–	–
COc1ccc(-n2cc(C(=O)NCc3ccc(Cl)cc3)c(=O)c3cc(CN4CCOCC4)ccc32)cc1 [Example 6, N-(4-Chlorobenzyl)-1-(4-methoxyphenyl)-6-(4-morpholinylmethyl)-4-oxo-1,4-dihydro-3-quinolinecarboxamide]	189 to 191	1.1	–	–
O=C(NCc1ccc(Cl)cc1)c1cn(-c2ccccc2CO)c2ccc(CN3CCOCC3)cc2c1=O [Example 8, N-(4-Chlorobenzyl)-1-(2-(hydroxymethyl)phenyl)-6-(4-morpholinylmethyl)-4-oxo-1,4-dihydro-3-quinolinecarboxamide]	162 to 163	1.47	–	–
O=C(NCc1ccc(Cl)cc1)c1cn(-c2cccc(I)c2)c2ccc(CN3CCOCC3)cc2c1=O [Example 3, N-(4-Chlorobenzyl)-1-(3-iodophenyl)-6-(4-morpholinylmethyl)-4-oxo-1,4-dihydro-3-quinolinecarboxamide]	176 to 179	2.1	–	–
O=C(NCc1ccc(Cl)cc1)c1cn(-c2ccc3c(c2)CCC3)c2ccc(CN3CCOCC3)cc2c1=O [Example 9, N-(4-Chlorobenzyl)-1-(2,3-dihydro-1H-inden-5-yl)-6-(4-morpholinylmethyl)-4-oxo-1,4-dihydro-3-quinolinecarboxamide]	123 to 125	1.32	–	–
O=C(NCc1ccc(F)cc1)c1cn(-c2ccc(Cl)cc2)c2ccc(CN3CCOCC3)cc2c1=O [Example 7, N-(4-Fluorobenzyl)-1-(4-chlorophenyl)-6-(4-morpholinylmethyl)-4-oxo-1,4-dihydro-3-quinolinecarboxamide]	–	2	–	–

The remaining lines, values ahead:

melting point [°C]	IC50 (HCMV polymerase) [µM]	IC50 (VZV polymerase) [µM]	IC50 (HSV polymerase) [µM]	Compound
142 to 144	0.76	–	–	O=C(NCc1ccc(Cl)cc1)c1cn(-c2cccc(CCCCCO)c2)c2ccc(CN3CCOCC3)cc2c1=O [Example 23, N-(4-Chlorobenzyl)-1-(3-(5-hydroxypentyl)phenyl)-6-(4-morpholinylmethyl)-4-oxo-1,4-dihydro-3-quinolinecarboxamide]
162 to 164	1.21	–	–	O=C(NCc1ccc(Cl)cc1)c1cn(-c2ccc(N3CCOCC3)cc2)c2ccc(CN3CCOCC3)cc2c1=O [Example 18, N-(4-Chlorobenzyl)-6-(4-morpholinylmethyl)-1-(4-(4-morpholinyl)phenyl)-4-oxo-1,4-dihydro-3-quinolinecarboxamide]
125 to 128	0.93	–	–	O=C(NCc1ccc(Cl)cc1)c1cn(-c2cccc(C#CCCCO)c2)c2ccc(CN3CCOCC3)cc2c1=O [Example 22]
145 to 148	0.57	0.29	0.59	O=C(NCc1ccc(Cl)cc1)c1cn(-c2cccc(C#CCO)c2)c2ccc(CN3CCOCC3)cc2c1=O [Example 20, N-(4-Chlorobenzyl)-1-(3-(3-hydroxy-1-propynyl)phenyl)-6-(4-morpholinylmethyl)-4-oxo-1,4-dihydro-3-quinolinecarboxamide]
158 to 160	0.82	0.43	0.7	O=C(NCc1ccc(Cl)cc1)c1cn(-c2cccc(CCO)c2)c2ccc(CN3CCOCC3)cc2c1=O [Example 14, N-(4-Chlorobenzyl)-1-(3-(2-hydroxyethyl)phenyl)-6-(4-morpholinylmethyl)-4-oxo-1,4-dihydro-3-quinolinecarboxamide]
119 to 121	0.68	–	–	O=C(NCc1ccc(Cl)cc1)c1cn(-c2cccc(CCCCO)c2)c2ccc(CN3CCOCC3)cc2c1=O [Example 24, N-(4-Chlorobenzyl)-1-(3-(4-hydroxybutyl)phenyl)-6-(4-morpholinylmethyl)-4-oxo-1,4-dihydro-3-quinolinecarboxamide]
107 to 110	1.05	–	–	O=C(NCc1ccc(Cl)cc1)c1cn(-c2ccc(F)c(F)c2)c2ccc(CN3CCOCC3)cc2c1=O [Example 19, N-(4-Chlorobenzyl)-1-(3,4-difluorophenyl)-6-(4-morpholinylmethyl)-4-oxo-1,4-dihydro-3-quinolinecarboxamide]
241 to 243	1.18	–	–	O=C(NCc1ccc(Cl)cc1)c1cn(-c2ccc3[nH]ccc3c2)c2ccc(CN3CCOCC3)cc2c1=O [Example 11, N-(4-Chlorobenzyl)-1-(1H-indol-5-yl)-6-(4-morpholinylmethyl)-4-oxo-1,4-dihydro-3-quinolinecarboxamide]
223 to 225	2.2	–	–	O=C(NCc1ccc(F)cc1)c1cn(-c2ccc3[nH]ccc3c2)c2ccc(CN3CCOCC3)cc2c1=O [Example 12, N-(4-Fluorobenzyl)-1-(1 H-indol-5-yl)-6-(4-morpholinylmethyl)-4-oxo-1,4-dihydro-3-quinolinecarboxamide]
125 to 128	1.13	–	–	O=C(NCc1ccc(Cl)cc1)c1cn(-c2cccc(C#CCCO)c2)c2ccc(CN3CCOCC3)cc2c1=O [Example 21, N-(4-Chlorobenzyl)-1-(3-(4-hydroxy-1-butynyl)phenyl)-6-(4-morpholinylmethyl)-4-oxo-1,4-dihydro-3-quinolinecarboxamide]
128 to 132	1.7	–	–	O=C(NCc1ccc(F)cc1)c1cn(-c2cccc(CCO)c2)c2ccc(CN3CCOCC3)cc2c1=O [Example 15, N-(4-Fluorobenzyl)-1-(3-(2-hydroxyethyl)phenyl)-6-(4-morpholinylmethyl)-4-oxo-1,4-dihydro-3-quinolinecarboxamide]
110 to 113	1.9	–	–	COc1cccc(-n2cc(C(=O)NCc3ccc(Cl)cc3)c(=O)c3cc(CN4CCOCC4)ccc32)c1 [Example 16, N-(4-Chlorobenzyl)-1-(3-methoxyphenyl)-6-(4-morpholinylmethyl)-4-oxo-1,4-dihydro-3-quinolinecarboxamide]
